# Measured values taken from PubChem BioAssay (NCI).
#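 Dose response: 5 concentrations. Exposure: 48 h. Format: 96-well plates. Endpoint: linear interpolation; highest concentration if not reached. TGI marks complete inhibition of growth.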
# How the values were obtained:
# Assay in all cases: NCI tumour cell line growth inhibition, 48 h
# 786-0 renal = test system: 786-0 renal
# A498 renal = test system: A498 renal
# A549 NSCLC = test system: A549 NSCLC
# ACHN renal = test system: ACHN renal
# CAKI-1 renal = test system: CAKI-1 renal
# CCRF-CEM leukemia = test system: CCRF-CEM leukemia
# COLO 205 colon = test system: COLO 205 colon
# DMS 114 small cell lung = test system: DMS 114 small cell lung
# DMS 273 small cell lung = test system: DMS 273 small cell lung
# EKVX NSCLC = test system: EKVX NSCLC
# HCT-15 colon = test system: HCT-15 colon
# HL-60(TB) leukemia = test system: HL-60(TB) leukemia
# HOP-18 NSCLC = test system: HOP-18 NSCLC
# HOP-62 NSCLC = test system: HOP-62 NSCLC
# HOP-92 NSCLC = test system: HOP-92 NSCLC
# HT29 colon = test system: HT29 colon
# IGROV1 ovarian = test system: IGROV1 ovarian
# K-562 leukemia = test system: K-562 leukemia
# KM12 colon = test system: KM12 colon
# KM20L2 colon = test system: KM20L2 colon
# LOX IMVI melanoma = test system: LOX IMVI melanoma
# LXFL 529 NSCLC = test system: LXFL 529 NSCLC
# M14 melanoma = test system: M14 melanoma
# M19-MEL melanoma = test system: M19-MEL melanoma
# MALME-3M melanoma = test system: MALME-3M melanoma
# MOLT-4 leukemia = test system: MOLT-4 leukemia
# NCI-H226 lung = test system: NCI-H226 lung
# NCI-H23 lung = test system: NCI-H23 lung
# NCI-H460 lung = test system: NCI-H460 lung
# NCI-H522 lung = test system: NCI-H522 lung
# OVCAR-3 ovarian = test system: OVCAR-3 ovarian
# OVCAR-4 ovarian = test system: OVCAR-4 ovarian
# OVCAR-5 ovarian = test system: OVCAR-5 ovarian
# OVCAR-8 ovarian = test system: OVCAR-8 ovarian
# RPMI-8226 leukemia = test system: RPMI-8226 leukemia
# RXF 393 renal = test system: RXF 393 renal
# RXF-631 renal = test system: RXF-631 renal
# SF-268 CNS = test system: SF-268 CNS
# SF-295 CNS = test system: SF-295 CNS
# SF-539 CNS = test system: SF-539 CNS
# SK-MEL-2 melanoma = test system: SK-MEL-2 melanoma
# SK-MEL-28 melanoma = test system: SK-MEL-28 melanoma
# SK-MEL-5 melanoma = test system: SK-MEL-5 melanoma
# SK-OV-3 ovarian = test system: SK-OV-3 ovarian
# SN12C renal = test system: SN12C renal
# SNB-19 CNS = test system: SNB-19 CNS
# SNB-75 CNS = test system: SNB-75 CNS
# SW-620 colon = test system: SW-620 colon
# TK-10 renal = test system: TK-10 renal
# U251 CNS = test system: U251 CNS
# UACC-257 melanoma = test system: UACC-257 melanoma
# UACC-62 melanoma = test system: UACC-62 melanoma
# UO-31 renal = test system: UO-31 renal
# XF 498 CNS = test system: XF 498 CNS
# DLD-1 colon = test system: DLD-1 colon
# HCC-2998 colon = test system: HCC-2998 colon
# HCT-116 colon = test system: HCT-116 colon
# SNB-78 CNS = test system: SNB-78 CNS
# SR leukemia = test system: SR leukemia
smiles,measurement,setting,value
Nc1nc[n+](Cc2ccccc2CCO)c2nc[nH]c12,TGI,786-0 renal,> 100 µM
same,TGI,A498 renal,> 100 µM
same,TGI,A549 NSCLC,> 100 µM
same,TGI,ACHN renal,> 100 µM
same,TGI,CAKI-1 renal,> 100 µM
same,TGI,CCRF-CEM leukemia,> 100 µM
same,TGI,COLO 205 colon,> 100 µM
same,TGI,DMS 114 small cell lung,> 100 µM
same,TGI,DMS 273 small cell lung,> 100 µM
same,TGI,EKVX NSCLC,> 100 µM
same,TGI,HCT-15 colon,> 100 µM
same,TGI,HL-60(TB) leukemia,> 100 µM
same,TGI,HOP-18 NSCLC,> 100 µM
same,TGI,HOP-62 NSCLC,> 100 µM
same,TGI,HOP-92 NSCLC,> 100 µM
same,TGI,HT29 colon,> 100 µM
same,TGI,IGROV1 ovarian,> 100 µM
same,TGI,K-562 leukemia,> 100 µM
same,TGI,KM12 colon,> 100 µM
same,TGI,KM20L2 colon,> 100 µM
same,TGI,LOX IMVI melanoma,> 100 µM
same,TGI,LXFL 529 NSCLC,> 100 µM
same,TGI,M14 melanoma,> 100 µM
same,TGI,M19-MEL melanoma,> 100 µM
same,TGI,MALME-3M melanoma,> 100 µM
same,TGI,MOLT-4 leukemia,> 100 µM
same,TGI,NCI-H226 lung,> 100 µM
same,TGI,NCI-H23 lung,> 100 µM
same,TGI,NCI-H460 lung,> 100 µM
same,TGI,NCI-H522 lung,> 100 µM
same,TGI,OVCAR-3 ovarian,> 100 µM
same,TGI,OVCAR-4 ovarian,> 100 µM
same,TGI,OVCAR-5 ovarian,> 100 µM
same,TGI,OVCAR-8 ovarian,> 100 µM
same,TGI,RPMI-8226 leukemia,> 100 µM
same,TGI,RXF 393 renal,> 100 µM
same,TGI,RXF-631 renal,> 100 µM
same,TGI,SF-268 CNS,> 100 µM
same,TGI,SF-295 CNS,> 100 µM
same,TGI,SF-539 CNS,> 100 µM
same,TGI,SK-MEL-2 melanoma,> 100 µM
same,TGI,SK-MEL-28 melanoma,> 100 µM
same,TGI,SK-MEL-5 melanoma,> 100 µM
same,TGI,SK-OV-3 ovarian,> 100 µM
same,TGI,SN12C renal,> 100 µM
same,TGI,SNB-19 CNS,> 100 µM
same,TGI,SNB-75 CNS,> 100 µM
same,TGI,SW-620 colon,> 100 µM
same,TGI,TK-10 renal,> 100 µM
same,TGI,U251 CNS,> 100 µM
same,TGI,UACC-257 melanoma,> 100 µM
same,TGI,UACC-62 melanoma,> 100 µM
same,TGI,UO-31 renal,> 100 µM
same,TGI,XF 498 CNS,> 100 µM
CN1CC[C@]2(C)c3c(O)cccc3CC3CCCC1C32C (stereo not given in full),TGI,786-0 renal,> 100 µM
same,TGI,A498 renal,> 100 µM
same,TGI,A549 NSCLC,> 100 µM
same,TGI,ACHN renal,> 100 µM
same,TGI,CAKI-1 renal,> 100 µM
same,TGI,CCRF-CEM leukemia,> 100 µM
same,TGI,COLO 205 colon,> 100 µM
same,TGI,DLD-1 colon,> 100 µM
same,TGI,DMS 114 small cell lung,> 100 µM
same,TGI,EKVX NSCLC,> 100 µM
same,TGI,HCC-2998 colon,72.7 µM
same,TGI,HCT-116 colon,> 100 µM
same,TGI,HCT-15 colon,> 100 µM
same,TGI,HL-60(TB) leukemia,> 100 µM
same,TGI,HOP-18 NSCLC,> 100 µM
same,TGI,HOP-62 NSCLC,> 100 µM
same,TGI,HOP-92 NSCLC,> 100 µM
same,TGI,HT29 colon,> 100 µM
same,TGI,IGROV1 ovarian,> 100 µM
same,TGI,K-562 leukemia,> 100 µM
same,TGI,KM12 colon,> 100 µM
same,TGI,KM20L2 colon,> 100 µM
same,TGI,LOX IMVI melanoma,> 100 µM
same,TGI,LXFL 529 NSCLC,> 100 µM
same,TGI,M14 melanoma,> 100 µM
same,TGI,M19-MEL melanoma,> 100 µM
same,TGI,MALME-3M melanoma,> 100 µM
same,TGI,MOLT-4 leukemia,> 100 µM
same,TGI,NCI-H226 lung,> 100 µM
same,TGI,NCI-H23 lung,> 100 µM
same,TGI,NCI-H460 lung,> 100 µM
same,TGI,NCI-H522 lung,> 100 µM
same,TGI,OVCAR-3 ovarian,> 100 µM
same,TGI,OVCAR-5 ovarian,> 100 µM
same,TGI,OVCAR-8 ovarian,> 100 µM
same,TGI,RPMI-8226 leukemia,> 100 µM
same,TGI,RXF 393 renal,> 100 µM
same,TGI,RXF-631 renal,> 100 µM
same,TGI,SF-268 CNS,> 100 µM
same,TGI,SF-295 CNS,> 100 µM
same,TGI,SF-539 CNS,> 100 µM
same,TGI,SK-MEL-2 melanoma,> 100 µM
same,TGI,SK-MEL-28 melanoma,> 100 µM
same,TGI,SK-MEL-5 melanoma,> 100 µM
same,TGI,SK-OV-3 ovarian,> 100 µM
same,TGI,SN12C renal,> 100 µM
same,TGI,SNB-19 CNS,> 100 µM
same,TGI,SNB-75 CNS,> 100 µM
same,TGI,SNB-78 CNS,> 100 µM
same,TGI,SR leukemia,> 100 µM
same,TGI,TK-10 renal,> 100 µM
same,TGI,U251 CNS,> 100 µM
same,TGI,UACC-257 melanoma,> 100 µM
same,TGI,UACC-62 melanoma,> 100 µM
same,TGI,UO-31 renal,> 100 µM
same,TGI,XF 498 CNS,> 100 µM
